This assay relates to E-selectin. In words: E-selectin surface expression by FACS analysis in HAEC. Format: cell-based, human. The settings on record: TNF-α 100 U/ml for 2 hr as positive control. The method, then:
Fluorescence activated cytometry sorting (FACS) analysis: Treated cells were dissociated into single cell suspensions using 0.25% trypsin-EDTA and resuspended in a FACS buffer (Hank's buffered solution containing 5% FBS). Aliquots of cell suspensions were incubated with ICAM-1 antibody (R&D Systems) for 20 min on ice, washed twice with FACS buffer, and incubated with secondary antibody (fluorescein-5-isothiocyanate- or phycoerytherin-conjugated, Chemicon) for 20 min on ice in the dark. Then samples were washed again, fixed in 1% paraformaldehyde and analyzed by FACS (Calibur, Becton-Dickinson) using CellQuest software. The fluorescence intensity of ICAM-1 and forward cell scattering of 30,000 cells were measured and the geometric means calculated from histograms were shown. […] In these experiments, ICAM-1 expression was measured in the red phycoerytherin channel, while the green channel was used to monitor the […] expression-GFP expression was determined by FACS analysis and fluorescence microscopy (20-30% transfection efficiency). […]
HAEC treated with OS, BMP4 or static condition were analyzed by FACS using antibodies specific to VCAM-1 (C) and E-selectin (D) as described in panel A using TNFa (1OOU/ml, for 2 hr) as a positive control.
In general terms: Flow cytometry measures light scatter and fluorescence of single cells or particles in a stream.

As to BMP4, the “effect on surface expression of E-selectin” value is reported as “neither OS nor BMP4 had any effect”.

Source of the values: US20060276385A1, “Anti-inflammatory agents and methods of their use” (priority 2003, published 2006).
